Two compounds from patent US4971967A, “Quinolinecarboxylic acid derivatives, antibacterial compositions and use” (Kanebo Ltd, priority 1989, dated 1990) can be followed below.

Assay [1] deals with Bacillus subtilis ATCC 6633. Nature of the assay: Antibacterial activity (MIC), Bacillus subtilis ATCC 6633. The format is cell-based. The gist of the method: (§1)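 Minimum inhibitory concentrations follow the procedure set by the Japan Society of Chemotherapy. Depending on the compound, the 5000 μg/ml stock is made in 0.1 N sodium hydroxide or sterilized water, and the working standard is 1000 μg/ml.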

In assay [2] the test system is Pseudomonas aeruginosa E-2. Briefly: Effect on treatment of general infectious disease, P. aeruginosa E-2 (Experiment 3). Type of assay: in vivo, ddY male mice infected with Pseudomonas aeruginosa. The note with it: E2, 168 h, oral, 1 h after i.p. infection, 3.1×10^4 CFU/mouse, survival after one week. As to the method:
Pseudomonas aeruginosa E-2 (3.1×10^4 CFU/mouse)
(§2) The test microorganisms were subjected to standing culture in Trypto-Soya Agar "Nissui" (made by Nissui Seiyaku K.K., Japan) at 37° C. for 16 to 18 hours. The culture was then diluted with PBS (Dulbecco's phosphate buffered saline) and mixed with an equivalent amount of 10% (w/v) Mucin (BACTO MUCIN BACTERIOLOGICAL, made by Difco Co.) to prepare a microorganism solution. The thus prepared microorganism solution (0.5 ml each) was intraperitoneally inoculated to ddY male mice (5 weeks age, weighing 25-28 g, 5 mice in each group), to infect the animals. One hour after the infection, the compound (A) or (J) of the present invention or the known compound (X) suspended in 1% (w/v) aqueous gum arabic or the known compound (Y) dissolved in sterilized distilled water was orally adiministered to mice.
(§3) The mice were daily observed for one week, and from the survival number of mice after one week, the 50% effective dose (ED50) was calculated by Weil method.

Assay [3] concerns clinically isolated methicillin resistant Staphylococcus aureus. Briefly: MIC against clinically isolated methicillin resistant Staphylococcus aureus. The note with it: 54 strains; for MIC50: minimum concentration for inhibiting growth of the strains by 50%; for MIC90: minimum concentration for inhibiting growth of the strains by 90%. Type of assay: cell-based. As to the method:
The compounds (A) and (J) of the present invention and the known compound (X) were dissolved in 0.1 N aqueous sodium hydroxide, and the known compound (Y) in sterilized distilled water, to prepare a solution of 5000 μg/ml in concentration each. The above solutions were then diluted with sterilized distilled water to prepare a standard solution with a concentration of the test compound: 1000 μg/ml each. The test was carried out by a method appointed by Japan Society of Chemotherapy (ibidem) to measure minimum inhibitory concentration (MIC) against 54 strains of clinically isolated methicillin resistant Staphylococcus aureus, from which there were calculated a range of MIC (MICrange) of the test compound against these resistant strains, a minimum concentration for inhibiting the growth of the strains by 50% (MIC50) and a minimum concentration for inhibiting the growth of the strains by 90% (MIC90).

Assay [4] relates to Pseudomonas aeruginosa IFO 3445. Nature of the assay: Antibacterial activity (MIC), P. aeruginosa IFO 3445. Type of assay: cell-based. The note with it: Pseudomonas aeruginosa, IFO3445, Pseudomonas aeruginosa IFO 3445, Gram -; read-out: Minimum inhibitory concentration (MIC). The gist of the method: as §1
The test system of assay [5] is Staphylococcus epidermidis IAM-1296. Briefly: Antibacterial activity (MIC), S. epidermidis IAM-1296. The format is cell-based. To be noted: Staphylococcus epidermidis, IAM1296, Staphylococcus epidermidis IAM-1296, Gram +; read-out: Minimum inhibitory concentration (MIC). The gist of the method: as §1
A further assay relates to infection. Briefly: Protective effects against infection (Experiments 3 and 4). The format is in vivo, ddY male mice. The note with it: result in words. As to the method:
as §2, §3
The procedure of Experiment 3 was repeated except that ddY male mice weighing 24 to 28 g were employed.

For assay [6], the system named is Staphylococcus aureus FDA 209P JC-1. Nature of the assay: Antibacterial activity (MIC), S. aureus FDA 209P JC-1. To be noted: FDA209P, read-out: Minimum inhibitory concentration (MIC). Type of assay: cell-based. The gist of the method: as §1
Assay [7] has as its system Escherichia coli NIHJ JC-2. Briefly: Antibacterial activity (MIC), E. coli NIHJ JC-2. The format is cell-based. To be noted: NIHJJC2; Escherichia coli NIHJ JC-2, Gram -; read-out: Minimum inhibitory concentration (MIC). The gist of the method: as §1
Assay [8] relates to Staphylococcus aureus IID 803. Briefly: Effect on treatment of general infectious disease, S. aureus IID 803 (Experiment 3). Type of assay: in vivo, ddY male mice infected with Staphylococcus aureus. The note with it: IID803, 168 h, oral, 1 h after i.p. infection, 5.0×10^7 CFU/mouse, survival after one week. As to the method: Staphylococcus aureus IID 803 (5.0×10^7 CFU/mouse)
as §2, §3

Assay [9] has as its system Citrobacter freundii NIHJ 10018-68. Nature of the assay: Antibacterial activity (MIC), Citrobacter freundii NIHJ 10018-68. Type of assay: cell-based. To be noted: Citrobacter freundii, NIHJ10018, Citrobacter freundii NIHJ 10018-68, Gram -; read-out: Minimum inhibitory concentration (MIC). The gist of the method: as §1
In assay [10] the test system is Streptococcus faecalis IID 682. Briefly: Antibacterial activity (MIC), Streptococcus faecalis IID 682. The format is cell-based. To be noted: Enterococcus faecalis, IID682, Streptococcus faecalis IID 682, Gram +; read-out: Minimum inhibitory concentration (MIC). The gist of the method: as §1
Assay [11] has as its system Enterobacter aerogenes ATCC 13048. Nature of the assay: Antibacterial activity (MIC), Enterobacter aerogenes ATCC 13048. The format is cell-based. The note with it: Klebsiella aerogenes, ATCC13048; Enterobacter aerogenes ATCC 13048, Gram -; read-out: Minimum inhibitory concentration (MIC). The gist of the method: as §1
The test system of assay [12] is Pseudomonas aeruginosa E-2. Briefly: Antibacterial activity (MIC), P. aeruginosa E-2. Type of assay: cell-based. The note with it: E2; Pseudomonas aeruginosa E-2, Gram -; read-out: Minimum inhibitory concentration (MIC). The gist of the method:
as §1

The subject of assay [13] is Pseudomonas aeruginosa NCTC 10490. Briefly: Antibacterial activity (MIC), P. aeruginosa NCTC 10490. The note with it: Pseudomonas aeruginosa, NCTC10490, Pseudomonas aeruginosa NCTC 10490, Gram -; read-out: Minimum inhibitory concentration (MIC). Type of assay: cell-based. The gist of the method: as §1
The subject of another assay is Proteus vulgaris OX-19. Nature of the assay: Antibacterial activity (MIC), Proteus vulgaris OX-19. The format is cell-based. The note with it: OX19; Proteus vulgaris OX-19, Gram -; read-out: Minimum inhibitory concentration (MIC). The gist of the method:
as §1

In the next assay the test system is Enterobacter cloacae 963. Briefly: Antibacterial activity (MIC), Enterobacter cloacae 963. Type of assay: cell-based. The note with it: Enterobacter cloacae, 963, Enterobacter cloacae 963, Gram -; read-out: Minimum inhibitory concentration (MIC). The gist of the method:
as §1

For assay [14], the system named is Morganella morganii IFO 3848. Nature of the assay: Antibacterial activity (MIC), Morganella morganii IFO 3848. Type of assay: cell-based. To be noted: Morganella morganii, IFO3848, Morganella morganii IFO 3848, Gram -; read-out: Minimum inhibitory concentration (MIC). The gist of the method: as §1
The next assay has as its system Shigella sonnei EW-33. Briefly: Antibacterial activity (MIC), Shigella sonnei EW-33. The format is cell-based. To be noted: Shigella sonnei, EW33, Shigella sonnei EW-33, Gram -; read-out: Minimum inhibitory concentration (MIC). The gist of the method: as §1
Assay [15] has as its system Staphylococcus aureus IID 803. Nature of the assay: Antibacterial activity (MIC), S. aureus IID 803. The format is cell-based. The gist of the method:
as §1

What is called ED50 is the dose at which the effect has come halfway, by size or by number of responders. A low value points to an effect at a small dose. One may read the MIC50 as an inhibitory concentration at the 50% level, which refers to growth in some studies and to a panel of isolates in others. Low values mean higher susceptibility, high ones lower susceptibility. What is called MIC90 is an inhibitory concentration at the 90% level, which refers to growth in some studies and to a panel of isolates in others. Lower therefore signals higher susceptibility.

Values after ≈ are worked out from the molar mass of the structure shown. Read-outs that look alike come from different tables or passages of the source.

Turning to `CN1CCN(c2c(F)cc3c(=O)c(C(=O)O)c4scc5n4c3c2N(C)C5)CC1` [Compound (A), 9,1-(Methylimino)methano-7-fluoro-8-(4-methyl-1-piperazinyl)-5-oxo-5H-thiazolo[3,2-a]quinoline-4-carboxylic acid], the “Minimum inhibitory concentration (MIC)” value in assay [1] (Bacillus subtilis ATCC 6633, Gram +) stood at 0.006 µg/mL. For the same compound, the ED50 in assay [2] came out at 10.2 mg/kg; in assay [8], 5.8 mg/kg. Moreover, the MIC in assay [3] is 0.025 to 0.1 µg/mL (≈ 0.0621 to 0.248 µM); in assay [4], 0.39 µg/mL (≈ 0.969 µM); in assay [5] it was 0.05 µg/mL (≈ 0.124 µM); in [6] (Staphylococcus aureus FDA 209P JC-1, Gram +), 0.05 µg/mL (≈ 0.124 µM); in [7] it was 0.05 µg/mL (≈ 0.124 µM); in [9], 0.2 µg/mL (≈ 0.497 µM). The MIC in [10] is 0.1 µg/mL (≈ 0.248 µM); in assay [11], 0.05 µg/mL (≈ 0.124 µM); in assay [12], 0.78 µg/mL (≈ 1.94 µM); in assay [13] it was 0.2 µg/mL (≈ 0.497 µM); in the assay with Proteus vulgaris OX-19, 0.0125 µg/mL (≈ 0.0311 µM); with Enterobacter cloacae 963, 0.05 µg/mL (≈ 0.124 µM). Moreover, the MIC in assay [14] came to 0.05 µg/mL (≈ 0.124 µM); in the assay with Shigella sonnei EW-33 it was 0.025 µg/mL (≈ 0.0621 µM); in assay [15] (IID803, Staphylococcus aureus IID 803, Gram +, read-out: Minimum inhibitory concentration (MIC)), 0.05 µg/mL (≈ 0.124 µM). The compound also showed an MIC50 in assay [3] of 0.05 µg/mL (≈ 0.124 µM). Also, the MIC90 in assay [3] is 0.1 µg/mL (≈ 0.248 µM). For the same compound, the “protective effects against infection” value in the assay on infection is on record as “excellent protective effects against infection”.
With `CCN1CCN(c2c(F)cc3c(=O)c(C(=O)O)c4scc5n4c3c2N(C)C5)CC1` [Compound (J), 9,1-(Methylimino)methano-7-fluoro-8-(4-ethyl-1-piperazinyl)-5-oxo-5H-thiazolo[3,2-a]quinoline-4-carboxylic acid], the MIC in assay [1] (Bacillus subtilis, ATCC6633, Bacillus subtilis ATCC 6633, Gram +, read-out: Minimum inhibitory concentration (MIC)) was 0.025 µg/mL (≈ 0.06 µM); in assay [3], 0.025 to 0.1 µg/mL (≈ 0.06 to 0.24 µM); in assay [4], 0.78 µg/mL (≈ 1.87 µM); in assay [5] it was 0.1 µg/mL (≈ 0.24 µM); in assay [6] (Staphylococcus aureus), 0.05 µg/mL (≈ 0.12 µM); in [7], 0.1 µg/mL (≈ 0.24 µM). Besides, the MIC in [9] was 0.39 µg/mL (≈ 0.936 µM); in assay [10], 0.1 µg/mL (≈ 0.24 µM); in [11] it was 0.1 µg/mL (≈ 0.24 µM); in assay [12] it was 0.78 µg/mL (≈ 1.87 µM); in assay [13], 0.39 µg/mL (≈ 0.936 µM); with Proteus vulgaris OX-19, 0.025 µg/mL (≈ 0.06 µM). For the same compound, the MIC in the assay on Enterobacter cloacae 963 is 0.1 µg/mL (≈ 0.24 µM); in assay [14], 0.1 µg/mL (≈ 0.24 µM); with Shigella sonnei EW-33 it was 0.05 µg/mL (≈ 0.12 µM); in assay [15] (Staphylococcus aureus, IID803, read-out: Minimum inhibitory concentration (MIC)), 0.05 µg/mL (≈ 0.12 µM). Also, the ED50 in assay [2] was found to be 6.8 mg/kg; in assay [8] it was 5.8 mg/kg. This compound also yielded an MIC50 in assay [3] of 0.05 µg/mL (≈ 0.12 µM). This compound came in with an MIC90 in [3] of 0.1 µg/mL (≈ 0.24 µM). For the same compound, the “protective effects against infection” value in the assay on infection is reported as “excellent protective effects against infection”.
